Measured values from ChEMBL document CHEMBL5661943, “ASAP - In vitro antiviral effect” (2024).
pEC50: −log10 of the molar value. “And” between values parts separate entries of the source, which are not always exact repeats. Equal entries are not always repeated.

Assays:
Zika virus = assay: EC50 is reported via analysis of immunofluorescence staining. The assay has been performed by Icahn School of Medicine at Mount Sinai.; format: functional, organism-based, Chlorocebus sabaeus, VeroE6/TMPRSS2
dengue virus type 2 = assay: Functional immunofluorescence assay to measure dose dependent changes in antiviral-drug inhibitory efficacy against Dengue virus type 2 Thailand/16681/84 in Vero E6/TMPRSS2 cells (cotreated with P-gp inhibitor, Elacridar). Cells are treated with antiviral candidates that are serially diluted, following infection, cells are fixed. EC50 is reported via analysis of immunofluorescence staining. The assay has been performed by Icahn School of Medicine at Mount Sinai.; format: organism-based, Chlorocebus sabaeus, VeroE6/TMPRSS2; settings: for EC90: P-gp concentration 2 uM, P-gp inhibitor Elacidar

c1ccc(-c2csc(C3CCN(Cc4c[nH]c5ccccc45)CC3)n2)cc1
EC90 (Zika virus; Baseline response 0 %, Hill slope -0.213, Maximum measured 87.861 %, Maximum response 100 %, Minimum measured 39.067 %, P-gp concentration 2 uM, R squared 0.218, P-gp inhibitor Elacidar): > 1.85 µM | pEC50 (Zika virus; Zika virus, VeroE6/TMPRSS2): 6.04 | EC90 (Zika virus; Zika virus, VeroE6/TMPRSS2, Baseline response 0 %, Hill slope -0.414, Maximum measured 90.11 %, Maximum response 100 %, Minimum measured 29.783 %, P-gp concentration 2 uM, R squared 0.361, P-gp inhibitor Elacidar): > 3.33 µM | pEC50 (Zika virus; veroe6/tmprss2): 5.96 | pEC50 (dengue virus type 2; Dengue virus, VeroE6/TMPRSS2): < 5.48 | EC90 (dengue virus type 2; Dengue virus, VeroE6/TMPRSS2, Maximum measured 77.936 %, Minimum measured 57.835 %): > 3.33 µM | EC90 (dengue virus type 2; Dengue virus, VeroE6/TMPRSS2, Baseline response 0 %, Hill slope -0.326, Maximum measured 104.724 %, Maximum response 100 %, Minimum measured 54.484 %, R squared 0.233): > 1.85 µM | pEC50 (dengue virus type 2; veroe6/tmprss2): < 5.73

CCOc1cccc(-c2ccc(S(=O)(=O)Nc3ccc(Cl)cc3C(=O)O)cc2)c1
EC90 (Zika virus; Baseline response 0 %, Hill slope -0.264, Maximum measured 100.253 %, Maximum response 100 %, Minimum measured 37.313 %, P-gp concentration 2 uM, R squared 0.296, P-gp inhibitor Elacidar): > 16.7 µM | pEC50 (Zika virus; Zika virus, VeroE6/TMPRSS2): < 5.00 | EC90 (Zika virus; Zika virus, VeroE6/TMPRSS2, Baseline response 0 %, Hill slope -0.107, Maximum measured 149.039 %, Maximum response 100 %, Minimum measured 60.172 %, P-gp concentration 2 uM, R squared 0.014, P-gp inhibitor Elacidar): > 10 µM | pEC50 (Zika virus; veroe6/tmprss2): 5.01 | EC90 (dengue virus type 2; Dengue virus, VeroE6/TMPRSS2, Maximum measured 86.49 %, Minimum measured 33.39 %): > 3.33 µM | EC90 (dengue virus type 2; Dengue virus, VeroE6/TMPRSS2, Maximum measured 135.635 %, Minimum measured 86.345 %): > 16.7 µM | pEC50 (dengue virus type 2; veroe6/tmprss2): < 4.78

NCc1cccc(NC(=O)c2cc(Cl)cc(N3CCCC3=O)c2)c1
EC90 (Zika virus; Baseline response 0 %, Hill slope 0.118, Maximum measured 129.177 %, Maximum response 100 %, Minimum measured 53.613 %, P-gp concentration 2 uM, R squared 0.041, P-gp inhibitor Elacidar): > 10 µM | EC90 (Zika virus; Baseline response 0 %, Hill slope -0.203, Maximum measured 140.608 %, Maximum response 100 %, Minimum measured 78.837 %, P-gp concentration 2 uM, R squared 0.028, P-gp inhibitor Elacidar): > 50 µM | pEC50 (Zika virus; veroe6/tmprss2): < 4.30 | EC90 (dengue virus type 2; Dengue virus, VeroE6/TMPRSS2, Maximum measured 120.219 %, Minimum measured 55.49 %): > 10 µM | EC90 (dengue virus type 2; Dengue virus, VeroE6/TMPRSS2, Baseline response 0 %, Hill slope 0.068, Maximum measured 98.172 %, Maximum response 100 %, Minimum measured 58.193 %, R squared 0.052): > 50 µM | pEC50 (dengue virus type 2; veroe6/tmprss2): < 4.30

NCc1cccc(NC(=O)c2cc(Cl)cc(NC(=O)OCc3ccccc3)c2)c1
EC90 (Zika virus; Baseline response 0 %, Hill slope -0.215, Maximum measured 128.419 %, Maximum response 100 %, Minimum measured 50.213 %, P-gp concentration 2 uM, R squared 0.105, P-gp inhibitor Elacidar): > 3.33 µM | EC90 (Zika virus; Baseline response 0 %, Hill slope -0.764, Maximum measured 71.895 %, Maximum response 50 %, Minimum measured 1.714 %, P-gp concentration 2 uM, R squared 0.465, P-gp inhibitor Elacidar): > 16.7 µM | EC90 (Zika virus; Baseline response 0 %, Hill slope -1.05, Maximum measured 125.373 %, Maximum response 100 %, Minimum measured 37.992 %, P-gp concentration 2 uM, R squared 0.488, P-gp inhibitor Elacidar): > 5.56 µM | pEC50 (Zika virus; veroe6/tmprss2): < 5.48 and 5.69 and 5.92 | EC90 (dengue virus type 2; Baseline response 0 %, Hill slope 0.299, Maximum measured 124.416 %, Maximum response 100 %, Minimum measured 54.583 %, R squared 0.188): > 10 µM | EC90 (dengue virus type 2; Baseline response 0 %, Hill slope -0.071, Maximum measured 76.87 %, Maximum response 100 %, Minimum measured 49.245 %, R squared 0.036): > 1.85 µM | EC90 (dengue virus type 2; Baseline response 0 %, Hill slope -0.258, Maximum measured 121.337 %, Maximum response 100 %, Minimum measured 68.392 %, R squared 0.156): > 5.56 µM | pEC50 (dengue virus type 2; veroe6/tmprss2): < 5.00

NCc1cccc(NC(=O)[C@H]2[C@H]3CCCCC[C@H]3[C@H]2NC(=O)OCc2ccccc2)c1
pEC50 (Zika virus; Zika virus, VeroE6/TMPRSS2): 5.84 | EC90 (Zika virus; Zika virus, VeroE6/TMPRSS2): 9.76 µM | pEC50 (dengue virus type 2; Dengue virus, VeroE6/TMPRSS2): < 5.26 | EC90 (dengue virus type 2; Dengue virus, VeroE6/TMPRSS2, Baseline response 0 %, Hill slope -0.21, Maximum measured 66.083 %, Maximum response 100 %, Minimum measured 25.848 %, R squared 0.326): > 5.56 µM

NCc1cccc(NC(=O)[C@@H](NC(=O)OCc2ccccc2)c2ccc(Br)c(Cl)c2)c1
pEC50 (Zika virus; Zika virus, VeroE6/TMPRSS2): 6.25 | EC90 (Zika virus; Zika virus, VeroE6/TMPRSS2, Baseline response 0 %, Hill slope -0.711, Maximum measured 91.358 %, Maximum response 100 %, Minimum measured 2.864 %, P-gp concentration 2 uM, R squared 0.54, P-gp inhibitor Elacidar): > 5.56 µM | pEC50 (dengue virus type 2; Dengue virus, VeroE6/TMPRSS2): < 5.26 | EC90 (dengue virus type 2; Dengue virus, VeroE6/TMPRSS2, Maximum measured 72.758 %, Minimum measured 24.513 %): > 5.56 µM

NCc1cccc(NC(=O)c2cc(Cl)cc3c2CCC3)c1
pEC50 (Zika virus; Zika virus, VeroE6/TMPRSS2): < 4.78 | EC90 (Zika virus; Zika virus, VeroE6/TMPRSS2, Maximum measured 83.197 %, Minimum measured 51.618 %, P-gp concentration 2 uM, P-gp inhibitor Elacidar): > 16.7 µM | pEC50 (dengue virus type 2; Dengue virus, VeroE6/TMPRSS2): < 5.00 | EC90 (dengue virus type 2; Dengue virus, VeroE6/TMPRSS2, Maximum measured 223.993 %, Minimum measured 74.273 %): > 16.7 µM | EC90 (dengue virus type 2; Dengue virus, VeroE6/TMPRSS2, Baseline response 0 %, Hill slope 0.162, Maximum measured 165.889 %, Maximum response 100 %, Minimum measured 52.995 %, R squared 0.068): > 10 µM | pEC50 (dengue virus type 2; veroe6/tmprss2): < 4.78
